Reference: patent US20250275953A1, “VODOBATINIB FOR REDUCING PROGRESSION OF PARKINSON'S DISEASE” (Sun Pharma Advanced Research Company Ltd., priority 2022, published 2025)
Several values for one entry are separate records, joined by “and”; a condition that tells them apart may be missing. Equal entries are not always repeated. Where two headings read alike, the source gives them in different places.

Test: Plasma pharmacokinetics, Parkinson's disease patients, once daily for 14 days
Type: in vivo, human
Conditions: PD patients; for AUC(0-t) / AUC / half-life / Cmax / Tmax: human; for AUC(0-t): read-out: AUC0-24 Mean
Description: Of these, 44 subjects completed the study. An additional 10 subjects were enrolled in the open label part of the study, of these, one subject was discontinued due to an AE of vomiting.
Safety population was comprised of 48 subjects (not including those in the open label cohorts) and PK population was comprised of 36 subjects from double blind part and 10 subjects from open label part of the study. No subjects were discontinued from the study due to protocol deviation.
The PK analysis was performed on the PK population and safety analysis was performed on this population as per the protocol described before.
Study NCT02970019 was a multi-center safety and tolerability study of vodobatinib in 60 subjects with Parkinson's Disease (diagnosed with PD according to the Brain Bank criteria of the United Kingdom Parkinson's Disease Society) who were randomized to receive placebo or various daily doses of vodobatinib for 14 days in a parallel assignment design with quadruple masking (participant, care provider, investigator, and outcomes assessor.) In study NCT02970019, consecutive cohorts of up to eight subjects received once-daily doses of 6, 12, 18, 24, 48, 96, 192, or 384 mg of study drug for 14 days, with six subjects in each cohort on vodobatinib and two subjects in each cohort on placebo. An alternating panel design was used such that subjects in the 6 and 18 mg cohorts were the same, and subjects in the 12 and 24 mg cohorts were the same, thus yielding 48 total individuals enrolled in the eight cohorts. There was a wash-out period of 14 days between each were studied in sequential ascending dose cohorts. In parallel to the double-blind cohorts, up to four subjects per dose cohort were enrolled in an open-label study of vodobatinib to receive 24, 48 or 96 mg once-daily doses of for 14 days. These subjects underwent lumbar puncture to collect CSF on Day 1, and 2-3 h after the last morning dose on Day 14. PK blood draws (for both double-blind and open label) were collected at pre-dose (˜30 min) and at 0.5, 1, 2, 4, 8, 12 and 24 h post-dose on Days 1 and 14.
Vodobatinib levels in plasma and CSF were determined using a fully validated LC-MS/MS assay with lower limits of quantitation (LLOQ) of 2.5 ng/mL and 0.05 ng/mL, respectively. PK analyses were performed using standard non-compartmental analysis with Phoenix® WinNonlin® software Version 6.4 to estimate the PK parameters Cmax, Tmax, AUCtau and Css. Descriptive statistics were used to characterize vodobatinib concentrations and PK parameters in plasma and CSF. Statistical calculations were performed with SAS software (Version 9.4, SAS Institute, Cary, North Carolina, USA).

Cc1ccc(C(=O)NNC(=O)c2c(C)cccc2Cl)cc1C#Cc1cnc2ccccc2c1 [N′-(2-chloro-6-methylbenzoyl)-4-methyl-3-[2-(3-quinolyl)ethynyl]-benzohydrazide]
Max Conc Geo. Mean (6 mg): 138.72 ng/mL
Max Conc Mean (6 mg): 182 ng/mL and 181.67 ng/mL
Max Conc Median (6 mg): 133.50 ng/mL
Max Conc Geo. Mean (12 mg): 270.17 ng/mL
Max Conc Mean (12 mg): 301.00 ng/mL
Max Conc Median (12 mg): 242.50 ng/mL
Max Conc Geo. Mean (18 mg): 300.12 ng/mL
Max Conc Mean (18 mg): 308.50 ng/mL
Max Conc Median (18 mg): 310.00 ng/mL
Max Conc Geo. Mean (24 mg): 677.41 ng/mL
Max Conc Mean (24 mg): 715.25 ng/mL
Max Conc Median (24 mg): 657.00 ng/mL
Max Conc Geo. Mean (48 mg): 930.30 ng/mL
Max Conc Mean (48 mg): 1110.44 ng/mL
Max Conc Median (48 mg): 844.00 ng/mL
Max Conc Geo. Mean (96 mg): 2298.86 ng/mL
Max Conc Mean (96 mg): 2802.50 ng/mL
Max Conc Median (96 mg): 2350.00 ng/mL
Max Conc Geo. Mean (192 mg): 2561.39 ng/mL
Max Conc Mean (192 mg): 3233.80 ng/mL
Max Conc Median (192 mg): 2580.00 ng/mL
Max Conc Geo. Mean (384 mg): 4198.52 ng/mL
Max Conc Mean (384 mg): 4512 ng/mL and 4512.00 ng/mL
Max Conc Median (384 mg): 5320.00 ng/mL
AUC(0-t) (6 mg, Day 14, plasma): 1250 ng·h/mL
AUC (6 mg, read-out: AUC Over Dosing Interval Geo. Mean): 1090 ng·h/mL
AUC (6 mg, read-out: AUC Over Dosing Interval Mean): 1250 ng·h/mL
AUC (6 mg, read-out: AUC Over Dosing Interval Median): 1040 ng·h/mL
AUC (6 mg, read-out: AUC Over Dosing Interval Min, Max): 470 to 2360 ng·h/mL
half-life (6 mg, read-out: Half-Life Lambda Z Geo. Mean (converted)): 11.1 h
half-life (6 mg, read-out: Half-Life Lambda Z Mean (converted)): 11.1 h
half-life (6 mg, read-out: Half-Life Lambda Z Median (converted)): 11.1 h
half-life (6 mg, read-out: Half-Life Lambda Z Min, Max (converted)): 11.1 h
AUC (12 mg, read-out: AUC Over Dosing Interval Geo. Mean): 2710 ng·h/mL
AUC (12 mg, read-out: AUC Over Dosing Interval Mean): 3250 ng·h/mL
AUC (12 mg, read-out: AUC Over Dosing Interval Median): 2530 ng·h/mL
AUC (12 mg, read-out: AUC Over Dosing Interval Min, Max): 1440 to 8240 ng·h/mL
AUC (18 mg, read-out: AUC Over Dosing Interval Geo. Mean): 2860 ng·h/mL
AUC (18 mg, read-out: AUC Over Dosing Interval Mean): 3370 ng·h/mL
AUC (18 mg, read-out: AUC Over Dosing Interval Median): 4160 ng·h/mL
AUC (18 mg, read-out: AUC Over Dosing Interval Min, Max): 908 to 4260 ng·h/mL
half-life (18 mg, read-out: Half-Life Lambda Z Mean (converted)): 13.5 h
half-life (18 mg, read-out: Half-Life Lambda Z Median (converted)): 13.5 h
half-life (18 mg, read-out: Half-Life Lambda Z Min, Max (converted)): 13.5 h
AUC (24 mg, read-out: AUC Over Dosing Interval Geo. Mean): 5250 ng·h/mL
AUC (24 mg, read-out: AUC Over Dosing Interval Mean): 5720 ng·h/mL
AUC (24 mg, read-out: AUC Over Dosing Interval Median): 6640 ng·h/mL
AUC (24 mg, read-out: AUC Over Dosing Interval Min, Max): 2460 to 8080 ng·h/mL
half-life (24 mg, read-out: Half-Life Lambda Z Geo. Mean (converted)): 10.5 h
half-life (24 mg, read-out: Half-Life Lambda Z Mean (converted)): 10.6 h
half-life (24 mg, read-out: Half-Life Lambda Z Median (converted)): 10.6 h
half-life (24 mg, read-out: Half-Life Lambda Z Min, Max (converted)): 8.9 to 12.4 h
AUC (48 mg, read-out: AUC Over Dosing Interval Geo. Mean): 7010 ng·h/mL
AUC (48 mg, read-out: AUC Over Dosing Interval Mean): 7910 ng·h/mL
AUC (48 mg, read-out: AUC Over Dosing Interval Median): 8670 ng·h/mL
AUC (48 mg, read-out: AUC Over Dosing Interval Min, Max): 2910 to 14200 ng·h/mL
half-life (48 mg, read-out: Half-Life Lambda Z Geo. Mean (converted)): 16.6 h
half-life (48 mg, read-out: Half-Life Lambda Z Mean (converted)): 19.6 h
half-life (48 mg, read-out: Half-Life Lambda Z Median (converted)): 11.3 h
half-life (48 mg, read-out: Half-Life Lambda Z Min, Max (converted)): 11.2 to 36.3 h
AUC (96 mg, read-out: AUC Over Dosing Interval Geo. Mean): 15100 ng·h/mL
AUC (96 mg, read-out: AUC Over Dosing Interval Mean): 17100 ng·h/mL
AUC (96 mg, read-out: AUC Over Dosing Interval Median): 13900 ng·h/mL
AUC (96 mg, read-out: AUC Over Dosing Interval Min, Max): 6870 to 38700 ng·h/mL
half-life (96 mg, read-out: Half-Life Lambda Z Geo. Mean (converted)): 13.2 h
half-life (96 mg, read-out: Half-Life Lambda Z Mean (converted)): 15.7 h
half-life (96 mg, read-out: Half-Life Lambda Z Median (converted)): 15.5 h
half-life (96 mg, read-out: Half-Life Lambda Z Min, Max (converted)): 5.7 to 26.1 h
AUC (192 mg, read-out: AUC Over Dosing Interval Geo. Mean): 27600 ng·h/mL
AUC (192 mg, read-out: AUC Over Dosing Interval Mean): 33800 ng·h/mL
AUC (192 mg, read-out: AUC Over Dosing Interval Median): 24800 ng·h/mL
AUC (192 mg, read-out: AUC Over Dosing Interval Min, Max): 13800 to 82700 ng·h/mL
AUC(0-t) (384 mg, Day 14, plasma): 43800 ng·h/mL
AUC (384 mg, read-out: AUC Over Dosing Interval Geo. Mean): 40400 ng·h/mL
AUC (384 mg, read-out: AUC Over Dosing Interval Mean): 43800 ng·h/mL
AUC (384 mg, read-out: AUC Over Dosing Interval Median): 44500 ng·h/mL
AUC (384 mg, read-out: AUC Over Dosing Interval Min, Max): 18600 to 66700 ng·h/mL
Cmax (oral, 6 mg, Day 1, plasma): 164 ng/mL
AUC(0-t) (oral, 6 mg, Day 1, plasma): 794 ng·h/mL
Tmax (oral, 6 mg, Day 1, plasma, read-out: Tmax median): 2 h
Cmax (oral, 6 mg, Day 14, plasma): 182 ng/mL
Tmax (oral, 6 mg, Day 14, plasma, read-out: Tmax median (range)): 2 h
Cmax (oral, 12 mg, Day 1, plasma): 255 ng/mL
AUC(0-t) (oral, 12 mg, Day 1, plasma): 2040 ng·h/mL
Tmax (oral, 12 mg, Day 1, plasma, read-out: Tmax median): 2 h
Cmax (oral, 12 mg, Day 14, plasma): 301 ng/mL
AUC(0-t) (oral, 12 mg, Day 14, plasma): 3250 ng·h/mL
Tmax (oral, 12 mg, Day 14, plasma, read-out: Tmax median (range)): 2 h
Cmax (oral, 18 mg, Day 1, plasma): 410 ng/mL
AUC(0-t) (oral, 18 mg, Day 1, plasma): 2730 ng·h/mL
Tmax (oral, 18 mg, Day 1, plasma, read-out: Tmax median): 2 h
Cmax (oral, 18 mg, Day 14, plasma): 309 ng/mL
AUC(0-t) (oral, 18 mg, Day 14, plasma): 3370 ng·h/mL
Tmax (oral, 18 mg, Day 14, plasma, read-out: Tmax median (range)): 3 h
Cmax (oral, 24 mg, Day 1, plasma): 385 ng/mL
AUC(0-t) (oral, 24 mg, Day 1, plasma): 2690 ng·h/mL
Tmax (oral, 24 mg, Day 1, plasma, read-out: Tmax median): 4 h
Cmax (oral, 24 mg, Day 14, plasma): 715 ng/mL
AUC(0-t) (oral, 24 mg, Day 14, plasma): 5720 ng·h/mL
Tmax (oral, 24 mg, Day 14, plasma, read-out: Tmax median (range)): 2 h
Cmax (oral, 48 mg, Day 1, plasma): 964 ng/mL
AUC(0-t) (oral, 48 mg, Day 1, plasma): 5310 ng·h/mL
Tmax (oral, 48 mg, Day 1, plasma, read-out: Tmax median): 4 h
Cmax (oral, 48 mg, Day 14, plasma): 1110 ng/mL
AUC(0-t) (oral, 48 mg, Day 14, plasma): 7910 ng·h/mL
Tmax (oral, 48 mg, Day 14, plasma, read-out: Tmax median (range)): 2 h
Cmax (oral, 96 mg, Day 1, plasma): 1360 ng/mL
AUC(0-t) (oral, 96 mg, Day 1, plasma): 10200 ng·h/mL
Tmax (oral, 96 mg, Day 1, plasma, read-out: Tmax median): 4 h
Cmax (oral, 96 mg, Day 14, plasma): 2800 ng/mL
AUC(0-t) (oral, 96 mg, Day 14, plasma): 17100 ng·h/mL
Tmax (oral, 96 mg, Day 14, plasma, read-out: Tmax median (range)): 2 h
Cmax (oral, 192 mg, Day 1, plasma): 1530 ng/mL
AUC(0-t) (oral, 192 mg, Day 1, plasma): 18600 ng·h/mL
Tmax (oral, 192 mg, Day 1, plasma, read-out: Tmax median): 2 h
Cmax (oral, 192 mg, Day 14, plasma): 3230 ng/mL
AUC(0-t) (oral, 192 mg, Day 14, plasma): 33800 ng·h/mL
Tmax (oral, 192 mg, Day 14, plasma, read-out: Tmax median (range)): 1 h
Cmax (oral, 384 mg, Day 1, plasma): 3020 ng/mL
AUC(0-t) (oral, 384 mg, Day 1, plasma): 29900 ng·h/mL
Tmax (oral, 384 mg, Day 1, plasma, read-out: Tmax median): 4.1 h
Cmax (oral, 384 mg, Day 14, plasma): 4510 ng/mL
AUC(0-t) (oral, 384 mg, Day 14, plasma): 43500 ng·h/mL
Tmax (oral, 384 mg, Day 14, plasma, read-out: Tmax median (range)): 1 h
